pIC50: −log10 of the molar value. Where two headings read alike, the source gives them in different places.
Key:
Assay type in all cases: cell-based, human
[1] = tested on: MYB; experiment: HiBiT protein abundance assay, MYB HiBiT K562 cell line; settings: 24 hours, top dose 10 μM
How it was run: (§1)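 Tagged-protein abundance measured by split-NanoBiT luminescence after lysis, following 24 h compound exposure (37° C; 10 μM top, 3-fold, 10 points; DMSO ≤0.25%) of HiBiT knock-in K562 cells. Percent response vs DMSO and unmodified-cell controls; 4-parameter logistic interpolation at 50% gave IC50.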

[2] = tested on: HTT; experiment: HiBiT protein abundance assay, HTT HiBiT K562 cell line; settings: 24 hours, top dose 10 μM
How it was run: as §1

[3] = tested on: MYB mRNA; experiment: RT-qPCR splicing assay, MYB canonical junction (CJ) and alternative junction (AJ) mRNA; settings: Homo sapiens; for AC50: increase in MYB alternative junction (AJ) mRNA, read-out: MYB AJ AC50
How it was run: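 Read-out is one-step RT-qPCR on cell lysates detecting the exon-exon junction of each isoform, normalized to a housekeeping gene (PPIA in A673, GAPDH or GUSB in K562).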

[4] = HiBiT K562 cell line, read-out: Effect on protein abundance, MYB (IC50 category)
[5] = HiBiT K562 cell line, read-out: Effect on protein abundance, HTT (IC50 category)
[6] = canonical junction qPCR panel, Table 5, read-out: MYB (decrease in CJ mRNA levels, IC50)
[7] = decrease in MYB canonical junction (CJ) mRNA, RT-qPCR, read-out: MYB CJ IC50
[8] = Table 5 panel, canonical junction qPCR, compound concentration having 50% response in CJ decrease, read-out: MYB IC50 (decrease in CJ mRNA levels)
[9] = HiBiT lytic detection, modified K562 cells, read-out: Effect on protein abundance, MYB (IC50)
[10] = HiBiT lytic detection, modified K562 cells, read-out: Effect on protein abundance, HTT (IC50)

Row | Structure (SMILES) | pIC50 [1, 4] | pIC50 [2, 5] | pIC50 [3, 6] | pIC50 [3, 7] | pIC50 [3, 8] | pIC50 [1, 9] | pIC50 [2, 10] | AC50 ([3]; RT-qPCR) [µM]
1 | Cc1c(O)c(-c2ncc3c(=O)n([C@H]4CCN[C@@H](C)C4)ccc3n2)cc2cn(C)nc12 [Compound 1441, 2-(6-hydroxy-2,7-dimethyl-indazol-5-yl)-6-(2-methyl-4-piperidyl)pyrido[4,3-d]pyrimidin-5-one] | > 7.00 | > 7.00 | > 7.00 | > 7.00 |  |  |  | < 0.1
2 | Cc1cn2nc(-c3ccc4c(=O)n(C5CCNCC5)ncc4c3)cc(C)c2n1 [Compound 186] | 6.00 to 7.00 | 6.00 to 7.00 |  | 6.00 to 7.00 | 6.00 to 7.00 |  |  | < 0.1
3 | Cc1c(O)c(-c2ncc3c(=O)n(C4CCNC(C)(C)C4)ccc3n2)cc2cn(C)nc12 (stereo not shown) [Compound 1442] | > 7.00 | 6.00 to 7.00 | 6.00 to 7.00 | > 7.00 |  |  |  | 0.1 to 1
4 | Cc1c(O)c(-c2ncc3c(=O)n([C@@H]4CC5CC4CN5)ccc3n2)cc2cn(C)nc12 (stereo in doubt) [Compound 1443, 6-[(1R,4R,5R)-2-azabicyclo[2.2.1]heptan-5-yl]-2-(6-hydroxy-2,7-dimethyl-indazol-5-yl)pyrido[4,3-d]pyrimidin-5-one] | 6.00 to 7.00 | 5.00 to 6.00 | 6.00 to 7.00 | 6.00 to 7.00 |  |  |  | 0.1 to 1
5 | Cc1cn2cc(-c3ncc4c(=O)n(C5CCNCC5)ccc4n3)cc(C#N)c2n1 [Compound 1301] | 6.00 to 7.00 | 6.00 to 7.00 | 6.00 to 7.00 | 6.00 to 7.00 |  |  |  | 0.1 to 1
6 | Cc1c(O)c(-c2ncc3c(=O)n(C4CCNC4)ccc3n2)cc2cn(C)nc12 (stereo in doubt) [Compound 1439, (6R)-2-(6-hydroxy-2,7-dimethyl-indazol-5-yl)-6-pyrrolidin-3-yl-pyrido[4,3-d]pyrimidin-5-one] | 6.00 to 7.00 | 5.00 to 6.00 | 6.00 to 7.00 | 6.00 to 7.00 |  |  |  | 0.1 to 1
7 | Cn1cc2ccc(-n3cnc4cc(NC5CCNCC5)ccc4c3=O)cc2n1 [Compound 204] | < 5.00 | < 5.00 |  | < 5.00 | < 5.00 |  |  | > 10
8 | CN1CCC(n2ncc3nc(-c4cc5cn(C)nc5cc4O)ccc3c2=O)CC1 [Compound 1307] |  |  | 5.00 to 6.00 | 5.00 to 6.00 |  | 5.00 to 6.00 | 5.00 to 6.00 | 1 to 10
9 | COc1c(-c2cc3ccn(C4CCNCC4)c(=O)c3cn2)cc2cn(C)nc2c1F [Compound 1219] | 6.00 to 7.00 | 5.00 to 6.00 |  | 5.00 to 6.00 | 5.00 to 6.00 |  |  | 1 to 10
10 | Cc1c(O)c(-c2ccc3c(=O)n(C4CC(C)NC(C)C4)ccc3n2)cc2cn(C)nc12 (stereo not shown) [Compound 1447, 6-(2,6-dimethyl-4-piperidyl)-2-(6-hydroxy-2,7-dimethyl-indazol-5-yl)-1,6-naphthyridin-5-one] | > 7.00 | 6.00 to 7.00 | 6.00 to 7.00 | 6.00 to 7.00 |  |  |  | 0.1 to 1
11 | Cc1cn(C2CCNCC2)c(=O)c2ccc(-c3cc4cn(C)nc4c(F)c3O)nc12 [Compound 1285] | > 7.00 | > 7.00 | > 7.00 | > 7.00 |  |  |  | < 0.1
12 | Cc1c(O)c(-c2ncc3c(=O)n([C@H]4CCNC(C)(C)C4)ccc3n2)cc2cn(C)nc12 [Compound 1436] | > 7.00 | 6.00 to 7.00 | > 7.00 | > 7.00 |  |  |  | < 0.1
13 | Cc1cn2nc(-c3ccc4c(=O)n(C5CCNCC5)ncc4n3)cc(C)c2n1 [Compound 1247] |  |  | > 7.00 | > 7.00 |  | > 7.00 | > 7.00 | < 0.1
14 | Cn1cc2cc(-c3ccc4c(=O)n([C@@H]5CCNC5)ccc4n3)c(O)c(F)c2n1 [Compound 1452, 2-(7-fluoro-6-hydroxy-2-methyl-indazol-5-yl)-6-[(3R)-pyrrolidin-3-yl]-1,6-naphthyridin-5-one] | 6.00 to 7.00 | 6.00 to 7.00 | > 7.00 | 6.00 to 7.00 |  |  |  | < 0.1

Continued, in another order:

Row | pIC50 [1, 4] | pIC50 [2, 5] | pIC50 [3, 6] | pIC50 [3, 7] | pIC50 [3, 8] | pIC50 [1, 9] | pIC50 [2, 10] | Structure (SMILES) | AC50 ([3]; RT-qPCR) [µM]
15 | 5.00 to 6.00 | 5.00 to 6.00 |  | 6.00 to 7.00 | 5.00 to 6.00 |  |  | Cc1cc(-c2cc3ccn(C4CCN(CCO)CC4)c(=O)c3cn2)cc2cn(C)nc12 [Compound 1210, 6-(2.7-dimethyl-2H-indazol-5-yl)-2-(1-(2-hydroxyethyl)piperidin-4-yl)-2,7-naphthyridin-1(2H)-one] | 1 to 10
16 | < 5.00 | < 5.00 | < 5.00 | < 5.00 |  |  |  | Cc1cn2cc(-c3ccc4c(=O)n(C5CCNC5)ccc4n3)c(O)c(C)c2n1 (stereo not shown) [Compound 1302] | > 10
17 | < 5.00 | < 5.00 | < 5.00 | < 5.00 |  |  |  | COc1c(-c2ccc3c(=O)n(C4CCNCC4)ccc3n2)cc2cn(C)nc2c1C [Compound 1243] | > 10
18 | 6.00 to 7.00 | 5.00 to 6.00 | 6.00 to 7.00 | 6.00 to 7.00 |  |  |  | Cc1cn2nc(-c3ccc4c(=O)n([C@H]5CCNC5)ccc4n3)cc(C)c2n1 [Compound 1437, 2-(2,8-dimethylimidazo[1,2-b]pyridazin-6-yl)-6-[(3S)-pyrrolidin-3-yl]-1,6-aphthyridin-5-one] | 0.1 to 1
19 | > 7.00 | > 7.00 | > 7.00 | > 7.00 |  |  |  | Cn1cc2nc(-c3ccc4c(=O)n(C5CCNCC5)ccc4n3)c(O)cc2n1 [Compound 1296] | < 0.1
20 | 6.00 to 7.00 | 5.00 to 6.00 | 6.00 to 7.00 | 5.00 to 6.00 |  |  |  | Cc1c(O)c(-c2ncc3c(=O)n([C@@H]4C[C@@H](C)N[C@@H](C)C4)ccc3n2)cc2cn(C)nc12 [Compound 1453, 6-[(2S,6R)-2,6-dimethyl-4-piperidyl]-2-(6-hydroxy-2,7-dimethyl-indazol-5-yl)pyrido[4,3-d]pyrimidin-5-one] | 0.1 to 1
21 | 5.00 to 6.00 | 5.00 to 6.00 |  | > 7.00 | > 7.00 |  |  | Cc1c(O)c(-c2ncc3c(=O)n(C4CCNCC4)cc(C)c3n2)cc2cn(C)nc12 [Compound 1191] | < 0.1
22 |  |  | 6.00 to 7.00 | 6.00 to 7.00 |  | 6.00 to 7.00 | 6.00 to 7.00 | Cc1cn2nc(-c3ccc4c(=O)n(C5CCN(CCF)CC5)ncc4n3)cc(C)c2n1 [Compound 1309] | 0.1 to 1
23 | 6.00 to 7.00 | 6.00 to 7.00 | 6.00 to 7.00 | > 7.00 |  |  |  | Cc1c(O)c(-c2ncc3c(=O)n(N4CCNCC4)ccc3n2)cc2cn(C)nc12 [Compound 1303] | 0.1 to 1
24 |  |  | 6.00 to 7.00 | 6.00 to 7.00 |  | 6.00 to 7.00 | 6.00 to 7.00 | Cc1cn2nc(-c3ccc4c(=O)n(C5CCN(C)CC5)ncc4n3)cc(C)c2n1 [Compound 1311] | 0.1 to 1
25 | > 7.00 | 6.00 to 7.00 |  | > 7.00 | > 7.00 |  |  | Cc1cn2cc(-c3cc4ccn(C5CCNCC5)c(=O)c4cn3)cc(F)c2n1 [Compound 1196] | < 0.1
26 | 6.00 to 7.00 | 5.00 to 6.00 | 6.00 to 7.00 | 6.00 to 7.00 |  |  |  | Cc1c(O)c(-c2ncc3c(=O)n([C@H]4C[C@H](N)C4)ccc3n2)cc2cn(C)nc12 [Compound 1432, 6-((1r,3r)-3-aminocyclobutyl)-2-(6-hydroxy-2,7-dimethyl-2H-indazol-5-yl)pyrido[4,3-d]pyrimidin-5(6H)-one] | 0.1 to 1

Source: patent US20250332173A1, “COMPOUNDS AND METHODS FOR MODULATING NUCLEIC ACID SPLICING” (REMIX THERAPEUTICS INC., priority 2021, published 2025)
